Reference: patent US7186701B2, “Dehydrating agent and method for dehydrating moist article using the agent and dehydrated article obtained by the method” (Kabushiki Kaisha Hayashibara Seibutsu Kagaku Kenkyujo, priority 2001, dated 2007)

What was measured:
[1] = system: α-isomaltosylglucosaccharide-forming enzyme; assay: Specificity of transfer acceptor (C9 enzyme); format: biochemical, Bacillus globisporus C9 strain; conditions: acceptor 1.6%, PINE-DEX #100 donor 4%, one unit/g donor, 30° C., pH 6.0, 24 hours
Method: (§1) A variety of saccharides were tested whether they could be used as transferring-acceptors for the α-isomaltosylglucosaccharide-forming enzyme. A solution of D-glucose, D-xylose, L-xylose, D-galactose, D-fructose, D-mannose, D-arabinose, D-fucose, L-sorbose, L-rhamnose, methyl-α-glucopyranoside, methyl-β-glucopyranoside, N-acetyl-glucosamine, sorbitol, α,α-trehalose, isomaltose, isomaltotriose, cellobiose, gentibiose, maltitol, lactose, sucrose, α-cyclodextrin, β-cyclodextrin, or γ-cyclodextrin was prepared. […] The reaction mixtures after the enzymatic reactions were analyzed on gas chromatography (abbreviated as “GLC” hereinafter) for monosaccharides and disaccharides as acceptors, and on HPLC for trisaccharides and higher saccharides as acceptors to confirm whether these saccharides could be used as their transfer acceptors. In the case of performing GLC, the following apparatuses and conditions were used: […] In the case of HPLC analysis, the apparatuses and conditions used were: HPLC apparatus, “CCPD” commercialized by Tosoh Corporation, Tokyo, Japan; column, “ODS-AQ-303” commercialized by YMC Co., Ltd., Tokyo, Japan; eluent, water at a flow rate of 0.5 ml/min; and detection, a differential refractometer.

[2] = system: Escherichia coli IFO 3301; assay: Assimilation test; format: cell-based; conditions: 0.5% saccharide in PYF medium, 37° C., four days, anaerobic
[3] = system: Bacteroides vulgatus JCM 5826; assay: Assimilation test; format: cell-based; conditions: 0.5% saccharide in PYF medium, 37° C., four days, anaerobic
[4] = system: α-isomaltosylglucosaccharide-forming enzyme; assay: Specificity of transfer acceptor (C11 enzyme); format: biochemical, Bacillus globisporus C11 strain; conditions: acceptor 1.6%, PINE-DEX #100 donor 4%, one unit/g donor, 30° C., pH 6.0, 24 hours
Method: as §1

[5] = system: Lactobacillus acidophilus JCM 1132; assay: Assimilation test; format: cell-based; conditions: 0.5% saccharide in PYF medium, 37° C., four days, anaerobic
[6] = system: Clostridium perfringens JCM 3816; format: cell-based; conditions: 0.5% saccharide in PYF medium, 37° C., four days, anaerobic
[7] = system: Bifidobacterium adolescentis JCM 1275; assay: Assimilation test; format: cell-based; conditions: 0.5% saccharide in PYF medium, 37° C., four days, anaerobic
[8] = system: Eubacterium aerofaciens ATCC 25986; assay: Assimilation test; format: cell-based; conditions: 0.5% saccharide in PYF medium, 37° C., four days, anaerobic
salivary amylase = target: T1, salivary amylase (Homo sapiens, UniProt P0DUB6); assay: Digestion test in vitro, salivary amylase
T1 sequence (P0DUB6 16-511): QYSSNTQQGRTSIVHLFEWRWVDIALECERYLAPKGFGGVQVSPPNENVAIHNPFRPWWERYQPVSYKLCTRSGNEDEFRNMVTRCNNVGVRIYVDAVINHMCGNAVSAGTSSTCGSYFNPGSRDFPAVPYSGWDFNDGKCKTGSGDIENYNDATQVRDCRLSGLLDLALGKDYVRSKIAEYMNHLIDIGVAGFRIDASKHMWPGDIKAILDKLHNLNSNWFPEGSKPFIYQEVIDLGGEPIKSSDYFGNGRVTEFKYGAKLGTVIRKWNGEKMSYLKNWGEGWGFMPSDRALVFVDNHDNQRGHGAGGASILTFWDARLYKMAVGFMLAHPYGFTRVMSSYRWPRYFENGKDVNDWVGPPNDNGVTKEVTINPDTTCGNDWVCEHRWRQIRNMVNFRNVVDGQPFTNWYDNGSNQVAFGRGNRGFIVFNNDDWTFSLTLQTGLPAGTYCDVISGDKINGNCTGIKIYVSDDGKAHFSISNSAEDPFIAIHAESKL

[9] = system: Small intestinal mucosal enzyme; assay: Digestion test in vitro, small intestinal mucosal enzyme
[10] = Digestion test in vitro, synthetic gastric juice
amylopsin = target: T2, amylopsin (Homo sapiens, UniProt P04746); assay: Digestion test in vitro, amylopsin
T2 sequence (P04746 16-511): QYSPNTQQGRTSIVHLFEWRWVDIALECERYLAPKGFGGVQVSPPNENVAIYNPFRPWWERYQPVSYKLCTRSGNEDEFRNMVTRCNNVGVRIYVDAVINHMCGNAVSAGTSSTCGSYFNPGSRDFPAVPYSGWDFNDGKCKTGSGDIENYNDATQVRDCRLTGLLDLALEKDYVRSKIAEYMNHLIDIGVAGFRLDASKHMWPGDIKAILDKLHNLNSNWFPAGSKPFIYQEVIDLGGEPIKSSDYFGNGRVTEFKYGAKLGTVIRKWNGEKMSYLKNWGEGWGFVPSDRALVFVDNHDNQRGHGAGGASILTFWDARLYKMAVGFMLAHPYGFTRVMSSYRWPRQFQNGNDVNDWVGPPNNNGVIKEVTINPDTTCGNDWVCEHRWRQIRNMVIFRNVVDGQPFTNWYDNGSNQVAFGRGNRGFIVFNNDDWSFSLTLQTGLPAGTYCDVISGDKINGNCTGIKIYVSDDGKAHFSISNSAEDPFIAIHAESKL

[11] = system: α-isomaltosylglucosaccharide-forming enzyme; assay: Influence of metal ions on α-isomaltosylglucosaccharide-forming enzyme activity (C9 strain); format: biochemical, Bacillus globisporus C9 strain; conditions: in the presence of 1 mM metal salt; None = 100
Method: The activities of these enzymes were assayed as follows: The activity of α-isomaltosylglucosaccharide-forming enzyme was assayed by dissolving maltotriose in 100 mM acetate buffer (pH 6.0) to give a concentration of 2% (w/v) for a substrate solution, adding 0.5 ml of an enzyme solution to 0.5 ml of the substrate solution, enzymatically reacting the mixture solution at 35° C. for 60 min, boiling the reaction mixture for 10 min to suspend the enzymatic reaction, and quantifying maltose, among the isomaltosyl maltose and maltose formed in the reaction mixture, on HPLC as described in Experiment 1. One unit activity of the α-isomaltosylglucosaccharide-forming enzyme was defined as the enzyme amount that forms one micromole of maltose per minute under the above enzymatic reaction conditions.
The influence of metal ions on the activity of α-isomaltosylglucosaccharide-forming enzyme was examined in the presence of 1 mM of any of metal salts according to the assay for the enzyme activity.

| SMILES | Product of saccharide transferring reaction, Enzyme of C9 strain [1] | Assimilability [2] | Assimilability [3] | Product of saccharide transferring reaction, Enzyme of C11 strain [4] | Assimilability [5] | Assimilability [6] | Assimilability [7] | Assimilability [8] | Decomposition percentage (%) by digestive enzyme (salivary amylase) [%] | Decomposition percentage (%) by digestive enzyme [9] [%] | Decomposition percentage (%) by digestive enzyme [10] [%] | Decomposition percentage (%) by digestive enzyme (amylopsin) [%] | Relative activity (%) [11] [%] |
| --- | --- | --- | --- | --- | --- | --- | --- | --- | --- | --- | --- | --- | --- |
| O=C[C@H](O)[C@@H](O)[C@H](O)[C@H](O)CO [D-Glucose, D-glucose, reference compound] | + (a saccharide-transferred product was detected in an amount of at least one percent but less than ten percent through transferring reaction to acceptor) | + (judged as positive (+) when the post culture had a pH of below 6.0) | + (judged as positive (+) when the post culture had a pH of below 6.0) | + (a saccharide-transferred product was detected in an amount of at least one percent but less than ten percent through transferring reaction to acceptor) | + (judged as positive (+) when the post culture had a pH of below 6.0) | + (judged as positive (+) when the post culture had a pH of below 6.0) | + (judged as positive (+) when the post culture had a pH of below 6.0) | + (judged as positive (+) when the post culture had a pH of below 6.0) |  |  |  |  |  |
| OC[C@@H](O)[C@@H](O[C@H]1O[C@H](CO)[C@@H](O)[C@H](O)[C@H]1O)[C@H](O)[C@@H](O)CO [Maltitol, maltitol] | ++ (a saccharide-transferred product was detected in an amount of at least ten percent through transferring reaction to acceptor) |  |  | ++ (a saccharide-transferred product was detected in an amount of at least ten percent through transferring reaction to acceptor) |  |  |  |  | 0.0 | 4.0 | 0.0 | 0.0 |  |
| [Mg+2] [Mg^2+] |  |  |  |  |  |  |  |  |  |  |  |  | 100 |
